From US11918568B2, “Fused ring compound having urea structure” (DAIICHI SANKYO COMPANY, LIMITED, priority 2018, dated 2024)

Target: human NAMPT enzyme (Homo sapiens (Human), UniProt P43490)
Test: NAMPT enzyme activating effect (in vitro cell-free enzyme assay)
Type: biochemical
Details: 2 ng/mL human NAMPT enzyme, 1-h incubation at 25° C., fluorescence of NMN derivative
Method: The NAMPT enzyme assay was conducted in accordance with the method of Formentini et al. […] Hereinafter, the procedures will be briefly described. The NAMPT enzyme reaction was carried out using polypropylene 384 well V shaped black plate (Greiner Bio One International GmbH). […] Then, 22 μL of 88% formic acid was added and the mixture was further incubated for 30 min in the dark. The NAMPT enzyme activity was calculated as the difference between fluorescence intensity (Ex 380 nm/Em 450 nm) from the reaction of a test compound treatment group and fluorescence intensity from control reaction free from the NAMPT enzyme. [NAMPT enzyme activity]=[Fluorescence intensity of the test substance treatment group]−[Mean fluorescence intensity of the control reaction free from the NAMPT enzyme] EC50 value of each compound was calculated from the enzyme activities of the compound at various concentrations by using GraphPad Prism software (GraphPad Software) (Table 1)

Chain of human NAMPT enzyme (P43490 whole entry): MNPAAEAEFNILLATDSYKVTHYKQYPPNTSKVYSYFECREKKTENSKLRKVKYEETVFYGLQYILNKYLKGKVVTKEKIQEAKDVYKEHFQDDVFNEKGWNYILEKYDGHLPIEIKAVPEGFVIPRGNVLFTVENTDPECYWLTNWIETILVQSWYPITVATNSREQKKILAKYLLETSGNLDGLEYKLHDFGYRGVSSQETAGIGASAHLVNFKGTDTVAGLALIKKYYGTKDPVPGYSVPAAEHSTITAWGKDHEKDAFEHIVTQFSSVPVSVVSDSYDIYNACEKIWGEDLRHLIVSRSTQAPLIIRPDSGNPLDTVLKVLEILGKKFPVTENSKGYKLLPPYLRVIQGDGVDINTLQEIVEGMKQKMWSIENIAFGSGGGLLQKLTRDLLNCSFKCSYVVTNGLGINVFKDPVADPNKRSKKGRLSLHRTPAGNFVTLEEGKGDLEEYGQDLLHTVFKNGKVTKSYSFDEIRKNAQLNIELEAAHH

Compound | EC50 [nM]
CC1(c2nc3ccc(NC(=O)NCc4ccncc4)cc3o2)CC1 [Example 3, N-[2-(1-Methylcyclopropyl)-1,3-benzoxazol-6-yl]-N′-[(pyridin-4-yl)methyl]urea] | 150
Cn1cc(-c2nc3ccc(NC(=O)NCc4ccncc4)cc3o2)cn1 [Example 4, N-[2-(1-Methyl-1H-pyrazol-4-yl)-1,3-benzoxazol-6-yl]-N′-[(pyridin-4-yl)methyl]urea] | 980
O=C(NCc1cnco1)Nc1ccc2nc(-c3ccccc3)oc2c1 [Example 5, N-[(1,3-Oxazol-5-yl)methyl]-N′-(2-phenyl-1,3-benzoxazol-6-yl)urea] | 110
O=C(NCc1ccncc1)Nc1cc2oc(-c3ccccc3)nc2cc1F [Example 6, N-(5-Fluoro-2-phenyl-1,3-benzoxazol-6-yl)-N′-[(pyridin-4-yl)methyl]urea] | 10
O=C(NCc1cnco1)Nc1ccc2nc(-c3ccccc3)nn2c1 [Example 10, N-[(1,3-Oxazol-5-yl)methyl]-N′-(2-phenyl[1,2,4]triazolo[1,5-a]pyridin-6-yl) urea] | 140
CCCCc1ccccc1-c1nc2ccc(NC(=O)NCc3ccncc3)cn2n1 [Example 11, N-[2-(2-Butylphenyl)[1,2,4]triazolo[1,5-a]pyridin-6-yl]-N′-[(pyridin-4-yl)methyl]urea] | 20
O=C(NCc1ccncc1)Nc1ccc2nc(-c3cccn3-c3ccccc3)nn2c1 [Example 12, N-[2-(1-Phenyl-1H-pyrrol-2-yl)[1,2,4]triazolo[1,5-a]pyridin-6-yl]-N′-[(pyridin-4-yl)methyl]urea] | 230
O=C(NCc1ccncc1)Nc1ccc2nc(-c3ccccc3C(F)(F)F)nn2c1 [Example 14, N-[(Pyridin-4-yl)methyl]-N′-{2-[2-(trifluoromethyl)phenyl][1,2,4]triazolo[1,5-a]pyridin-6-yl}urea] | 180
O=C(NCc1ccncc1)Nc1ccc2c(C(=O)N3CCCC3)n(-c3ccccc3)nc2c1 [Example 17, N-[2-Phenyl-3-(pyrrolidine-1-carbonyl)-2H-indazol-6-yl]-N′-[(pyridin-4-yl)methyl]urea] | 110
CN(C)C(=O)c1c(-c2ccccc2)nn2cc(NC(=O)NCc3ccncc3)cc(F)c12 [Example 20, 4-Fluoro-N,N-dimethyl-2-phenyl-6-({[(pyridin-4-yl)methyl]carbamoyl}amino)pyrazolo[1,5-a]pyridine-3-carboxamide] | 160
N#Cc1c(-c2ccccc2)nn2cc(NC(=O)NCc3ccncc3)ccc12 [Example 24, N-(3-Cyano-2-phenylpyrazolo[1,5-a]pyridin-6-yl)-N′-[(pyridin-4-yl)methyl]urea] | 50
O=C(NCc1ccncc1)Nc1ccc2cn(-c3ccccc3)nc2c1 [Example 26, N-(2-Phenyl-2H-indazol-6-yl)-N′-[(pyridin-4-yl)methyl]urea] | 40
CS(=O)(=O)c1cccc(-n2cc3ccc(NC(=O)NCc4ccncc4)cc3n2)c1 [Example 27, N-{2-[3-(Methanesulfonyl)phenyl]-2H-indazol-6-yl}-N′-[(pyridin-4-yl)methyl]urea] | 130
COCCOc1ccccc1-n1cc2ccc(NC(=O)NCc3ccncc3)cc2n1 [Example 29, N-{2-[2-(2-Methoxyethoxy)phenyl]-2H-indazol-6-yl}-N′-[(pyridin-4-yl)methyl]urea] | 60
COc1cccc(-n2cc3ccc(NC(=O)NCc4ccncc4)cc3n2)c1 [Example 30, N-[2-(3-Methoxyphenyl)-2H-indazol-6-yl]-N′-[(pyridin-4-yl)methyl]urea] | 10
O=C(NCc1ccncc1)Nc1cnc2cc(-c3ccccc3)nn2c1 [Example 31, N-(2-Phenylpyrazolo[1,5-a]pyrimidin-6-yl)-N′-[(pyridin-4-yl)methyl]urea] | 430
COc1cc(-n2nc3cc(NC(=O)NCc4ccncc4)ccc3c2C#N)ccn1 [Example 33, N-[3-Cyano-2-(2-methoxypyridin-4-yl)-2H-indazol-6-yl]-N′-[(pyridin-4-yl)methyl]urea] | 130
COCCn1c(-c2ccccc2)cc2cc(NC(=O)NCc3ccncc3)ccc21 [Example 36, N-[1-(2-Methoxyethyl)-2-phenyl-1H-indol-5-yl]-N′-[(pyridin-4-yl)methyl]urea] | 130
COCCOc1cccc(-c2cc3cc(NC(=O)NCc4ccncc4)ccc3n2C)c1 [Example 37, N-{2-[3-(2-Methoxyethoxy)phenyl]-1-methyl-1H-indol-5-yl}-N′-[(pyridin-4-yl)methyl]urea] | 160
Cn1c(-c2cccc(S(C)(=O)=O)c2)cc2cc(NC(=O)NCc3ccncc3)ccc21 [Example 38, N-{2-[3-(Methanesulfonyl)phenyl]-1-methyl-1H-indol-5-yl}-N′-[(pyridin-4-yl)methyl]urea] | 620
Cn1c(-c2ccccn2)cc2cc(NC(=O)NCc3ccncc3)ccc21 [Example 39, N-[1-Methyl-2-(pyridin-2-yl)-1H-indol-5-yl]-N′-[(pyridin-4-yl)methyl]urea] | 530
O=C(NCc1ccncc1)Nc1ccc2c(c1)cc(-c1ccccc1)n2CC1COCCO1 (stereo not shown) [Example 40, N-{1-[(1,4-Dioxan-2-yl)methyl]-2-phenyl-1H-indol-5-yl}-N′-[(pyridin-4-yl)methyl]urea] | 190
O=C(NCc1cnco1)Nc1ccc2cn(-c3ccccc3)nc2c1 [Example 43, N-[(1,3-Oxazol-5-yl)methyl]-N′-(2-phenyl-2H-indazol-6-yl)urea] | 140
O=C(NCc1ccncc1)Nc1ccc2cn(-c3cccc(OC(F)F)c3)nc2c1 [Example 44, N-{2-[3-(Difluoromethoxy)phenyl]-2H-indazol-6-yl}-N′-[(pyridin-4-yl)methyl]urea] | 110
COc1cccc(-c2cc3ccc(NC(=O)NCc4ccncc4)cn3n2)c1 [Example 45, N-[2-(3-Methoxyphenyl)pyrazolo[1,5-a]pyridin-6-yl]-N′-[(pyridin-4-yl)methyl]urea] | 60
CC(C)Cn1ncc2cc(NC(=O)NCc3ccncc3)ccc21 [Example 46, N-[1-(2-Methylpropyl)-1H-indazol-5-yl]-N′-[(pyridin-4-yl)methyl]urea] | 790

More lines, now with the values ahead:

EC50 [nM] | Compound
80 | COc1cccc([C@H]2Oc3cc(NC(=O)NCc4ccncc4)ccc3[C@@H]2C)c1 (relative stereo) [Example 53, N-[(2S*,3S*)-2-(3-Methoxyphenyl)-3-methyl-2,3-dihydro-1-benzofuran-6-yl]-N′-[(pyridin-4-yl)methyl]urea]
50 | CCN(CC)C(=O)c1c2ccc(NC(=O)NCc3ccncc3)cc2nn1-c1ccccc1 [Example 18, N,N-Diethyl-2-phenyl-6-({[(pyridin-4-yl)methyl]carbamoyl}amino)-2H-indazole-3-carboxamide]
380 | CCC(=O)N1CC(c2ccccc2)COc2cc(NC(=O)NCc3ccncc3)ccc21 (stereo not shown) [Example 19, N-(3-Phenyl-5-propanoyl-2,3,4,5-tetrahydro-1,5-benzoxazepin-8-yl)-N′-[(pyridin-4-yl)methyl]urea]
110 | CN(C)C(=O)c1c(-c2ccccc2)nn2cc(NC(=O)NCc3ccncc3)ccc12 [Example 23, N,N-Dimethyl-2-phenyl-6-({[(pyridin-4-yl)methyl]carbamoyl}amino)pyrazolo[1,5-a]pyridine-3-carboxamide]
70 | Cc1c(-c2ccccc2)nn2cc(NC(=O)NCc3ccncc3)ccc12 [Example 25, N-(3-Methyl-2-phenylpyrazolo[1,5-a]pyridin-6-yl)-N′-[(pyridin-4-yl)methyl]urea]
1000 | Cc1c2ccc(NC(=O)NCc3ccncc3)cc2nn1-c1ccccc1 [Example 28, N-(3-Methyl-2-phenyl-2H-indazol-6-yl)-N′-[(pyridin-4-yl)methyl]urea]
180 | CC(=O)N1c2ccc(NC(=O)NCc3ccncc3)cc2CC1c1ccccc1 (stereo not shown) [Example 34, N-(1-Acetyl-2-phenyl-2,3-dihydro-1H-indol-5-yl)-N′-[(pyridin-4-yl)methyl]urea]
560 | COC(=O)Cn1c(-c2ccccc2)cc2cc(NC(=O)NCc3ccncc3)ccc21 [Example 35, Methyl [2-phenyl-5-({[(pyridin-4-yl)methyl]carbamoyl}amino)-1H-indol-1-yl]acetate]
290 | CN(C)C(=O)n1c(-c2ccccc2)cc2cc(NC(=O)NCc3ccncc3)ccc21 [Example 41, N,N-Dimethyl-2-phenyl-5-({[(pyridin-4-yl)methyl]carbamoyl}amino)-1H-indole-1-carboxamide]
100 | Cn1c(-c2ccccc2)cc2cc(NC(=O)NCc3ccncc3)ccc21 [Example 42, N-(1-Methyl-2-phenyl-1H-indol-5-yl)-N′-[(pyridin-4-yl)methyl]urea]
650 | COCCN1CC(c2ccccc2)Oc2cc(NC(=O)NCc3ccncc3)ccc21 (stereo not shown) [Example 48, N-[4-(2-Methoxyethyl)-2-phenyl-3,4-dihydro-2H-1,4-benzoxazin-7-yl]-N′-[(pyridin-4-yl)methyl]urea]
130 | CCNC(=O)N1CC(c2ccccc2Cl)Oc2cc(NC(=O)NCc3ccncc3)ccc21 (stereo not shown) [Example 49, 2-(2-Chlorophenyl)-N-ethyl-7-({[(pyridin-4-yl)methyl]carbamoyl}amino)-2,3-dihydro-4H-1,4-benzoxazine-4-carboxamide]
120 | O=C(NCc1ccncc1)Nc1ccc2c(c1)OC(c1ccccc1)C2 (stereo not shown) [Example 51, N-(2-Phenyl-2,3-dihydro-1-benzofuran-6-yl)-N′-[(pyridin-4-yl)methyl]urea]
270 | O=C(NCc1ccncc1)Nc1ccc2c(c1)OCC2c1ccccc1 (stereo not shown) [Example 54, N-(3-Phenyl-2,3-dihydro-1-benzofuran-6-yl)-N′-[(pyridin-4-yl)methyl]urea]
